From PMC12516379, “Rotamer-Controlled Self-Immolative Linkers Enable Tunable Release of Neurosteroid Oxime Prodrugs” (ACS Medicinal Chemistry Letters, 2025)

Columns and labels:
[1] = Aqueous solubility by visual inspection in acetate buffer (pH 5); conditions: for solubility: sodium acetate buffer, pH 5, aqueous buffer, thermodynamic from solid
Method: For the solubility assessment, acetate buffer (pH 5) was selected as the media of choice to ensure prodrug stability during analysis.
High aqueous solubility was determined by visual inspection of 5 mg solid material in 0.5 mL
sodium acetate buffer solution. This media was selected to ensure stability of prodrugs during
dissolution in 50 mg/mL aqueous media.

[2] = Stability in acetate buffer pH 5.0 at room temperature via HPLC (UV); format: physicochemical
Method: (§1) Stability studies were conducted in PBS and acetate buffer utilizing high performance liquid chromatography for potential drug storage considerations. […]
(§2) All experiments were performed in duplicate and results are presented as the average of two experimental replicates.
(§3) 1.1 Aqueous Stability in PBS and Acetate Buffer via HPLC
(§4) Material and Instrumentation
(§5) HPLC grade acetonitrile (MeCN) […] HPLC grade water (H 2O), and formic acid (FA) were purchased from Fisher Scientific.
(§6) Puradisc 4 mm PTFE (0.45 μm) syringe filters from Cytiva. Gibco ® Dulbecco’s phosphate-buffered saline (DPBS 1X, no calcium, no magnesium, pH = 7.03) and acetate buffer (pH = 5.0, 10 mM) were purchased directly from Thermo Fisher Scientific and Cytiva, respectively.
(§7) Aqueous stability experiments were performed on an Agilent 1100 HPLC equipped with an Agilent G1315B diode array detector, an Agilent G1316A heated column compartment, and a Zorbax Eclipse XDB-C18 (4.6 x 150 mm, 5 μm) column.
(§8) Procedure for Aqueous Stability Experiments
(§9) Each sample was first weighed out in two separate 2.0 mL vials using an analytical balance.
(§10) Unless otherwise specified, the test compounds were then dissolved in the aqueous media (PBS or acetate buffer) at a standard concentration of 1 mg/mL. All mixtures were subsequently sonicated for approximately 30 sec. […]
(§11) min), precipitates observed in sample solutions were filtered with a PTFE syringe filter prior to analysis. Immediately after sample preparation, injection by the HPLC autosampler was performed, which was recorded as the initial time point (t = 0 min). Solutions were then kept in the autosampler at RT and reinjected at designated intervals without additional filtration or sample modification. Remaining prodrug was defined by the area under the curve (AUC) at 254 nm. Aqueous stability was ascertained by calculating the percentage of the parent compound remaining after each time point. Linear regression of the time (x-axis) vs. ln(%remaining) (y-axis) plot afforded the rate constant k (slope = -k). Pseudo first-order half-lives were then calculated by the following equation: t1/2 = 0.693/k.

[3] = Formation of progesterone oxime 3 from prodrugs in human plasma at 37 °C over 2 h; format: in vitro ADME; conditions: 2 h period
Method: Given the greater biological relevance of plasma, we focused on quantifying the formation of progesterone and allopregnanolone oxime in human plasma at 37 °C over a 2 h period. Results for selected progesterone prodrugs are presented in Figure A–C, illustrating the broad range of plasma cleavage rates as a function of promoiety design (see Figure S13 in Supporting Information for complete data set). Complete stability data for synthesized allopregnanolone prodrugs (Figures S18–S20) are provided in the Supporting Information. Given that their trends closely paralleled the progesterone series, they were not discussed in detail in the main text. […] This unexpected result prompted further investigation using computational modeling, described in the following section. […] Higher pK a values were associated with faster and more complete oxime formation, likely due to enhanced H-bonding which could stabilize the reactive syn-conformer. […] For the heterocyclic pyrrolidine and angle-strained series (Figure C), the release rates closely matched the experimentally determined prodrug half-lives (Table ), which were shorter in human plasma than in PBS. […] Although both 20s and 20t are capable of adopting the reactive syn-rotamer, their self-immolation reactivity diverged due to differences in linker geometry. The cyclopropane in 20s induces angle strain that hinders nucleophilic attack, rendering the compound stable under both PBS and plasma conditions. […] This intriguing result warrants further investigation, with follow-up studies currently in progress. Finally, the nucleophilic capacity of the amine tethers in prodrugs 20w–20z were evaluated based on their ability to cyclize in plasma, as detailed in the Supporting Information Figure S13.
(§12) 1.2 Stability in Plasma and PBS via LCMS
(§13) Procaine (positive control) was purchased from Sigma-Aldrich. HPLC grade MeCN, MeOH, H2O, and FA were purchased from Fischer Scientific. Human plasma (cat. No. […]- […]
(§14) 0102242) were obtained from BIOIVT. DPBS 1X (no calcium, no magnesium, pH = 7.03) was purchased from Thermo Fischer Scientific. Stock solutions were prepared in 100% DMSO, and suitable dilutions of target analytes were prepared in 0.1% FA /MeCN for method development.
(§15) For PBS assay Gibco® Dulbecco’s phosphate-buffered saline (DPBS 1X, no calcium, no magnesium, pH = 7.03) was utilized. All experiments were performed in duplicate and results are presented as the average of two experimental replicates.
(§16) Procedure for Plasma Stability Assay
Test compounds and positive control (i.e. procaine) were dissolved in DMSO to make a 10 mM stock solution and subsequently diluted to 500 μM in 50% MeCN and PBS. […] The supernatant was transferred to an LC-MS vial and analyzed by LC/MS-MS. […]

[4] = Stability in PBS at room temperature via HPLC (UV); format: physicochemical; conditions: phosphate-buffered saline (DPBS)
Method: as §1, §2, §3, §4, §5, §6, §7, §8, §9, §10, §11

[5] = Plasma stability assay via LC-MS/MS, rat plasma; format: in vitro ADME; conditions: read-out: t1/2 in rat plasma (Table S19) (converted)
Method: (§17) Building on our observation that rotamer control in the steric series can be modulated by enzymatic stabilization or activation, we next evaluated whether this effect was species dependent. To investigate this, we performed comparative stability studies by incubating select prodrugs (20a, 20b, 20l and 20t; Figure ) in mouse and rat plasma – two of the most commonly used preclinical species in drug development. This approach allowed us to assess the potential influence of species-specific enzymes on rotamer equilibria and, by extension, prodrug activation rates. The self-immolation profiles for the sterically tuned linker series (20a–b) reveal discernible, species-dependent differences prodrug stability. […] While the precise biochemical drivers remain unclear, this observation warrants further investigation beyond the scope of this work.
as §12, §13, §14, §15, §16
(§18) Test compounds and positive control (i.e. procaine) were dissolved in DMSO to make a 10 mM stock solution and subsequently diluted to 500 μM in 50% MeCN and PBS. This intermediate stock solution was prepared and added immediately prior to the start of each test compound experiment. Plasma was thawed at ambient temperature and aliquoted (663.0 μL) into 1.5 mL Eppendorf tubes. Plasma was incubated at 37 °C for 10 minutes in an incubator shaker at 150 rpm, and the reactions were initiated by addition of the test compound or positive control (4.0 µL, 3 μM). The spiked plasma samples were incubated at 37 °C. For designated time points, 75 µL aliquots were removed from the incubation mixture and immediately quenched in 150 µL of MeCN/0.1%FA with internal standard (ISTD, 2 µM d 5-7-ethoxy coumarin). […] The supernatant was transferred to an LC-MS vial and analyzed by LC/MS-MS. […]
(§19) LC–MS/MS analysis was performed using an Agilent 1260 Infinity II HPLC, coupled with an Agilent G6460 triple quadrupole mass spectrometer (Agilent Technologies, USA). All the data were acquired employing Agilent 6460 Quantitative Analysis data processing software. […]

[6] = Plasma stability assay at 37 °C via LC-MS/MS, human plasma; format: in vitro ADME; conditions: for half-life at 3 µM: human, plasma;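 as to all read-outs here: prodrugs at 3 µM incubated in human plasma at 37 °C, intact prodrug quantified by LC-MS/MS over time, values are means of duplicate runs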
Method: (§20) To address this, prodrug stability was further evaluated in human plasma at 37 °C using liquid chromatography–tandem mass spectrometry (LC-MS/MS). For direct comparison, a parallel screen was conducted in PBS under identical conditions (Table ). To prevent premature degradation prior to LC-MS/MS analysis, acetonitrile containing formic acid was used as a quenching solution to acidify and stabilize the prodrugs in vials. […] This limitation in detection, along with the need for a more uniform and broadly applicable assessment across all compounds, prompted us to monitor the formation of the parent oxime as an alternative readout.
(§21) Stability experiments in human plasma and PBS were performed via liquid chromatography-tandem mass spectrometry (LC-MS/MS) to determine and compare rate of cleavage of progesterone prodrugs as well as selected allopregnanolone prodrugs (3 µM) when incubated at 37 °C. All experiments were performed in duplicate and results are presented as the average of two experimental replicates.

[7] = PBS stability assay at 37 °C via LC-MS/MS; format: physicochemical; conditions: 37 °C; for half-life at 3 µM: pH 7.03, PBS
Method: as §20, §21

[8] = Plasma stability assay via LC-MS/MS, mouse plasma; format: in vitro ADME; conditions: read-out: t1/2 in mouse plasma (Table S20) (converted)
Method: as §17, §12, §13, §14, §15, §16, §18, §19

[9] = pH 5, acetate buffer pH 5.0, RT, 1 mg/mL, HPLC 254 nm, read-out: t1/2 in acetate buffer at RT (Tables S5-S8) (converted)
[10] = pH 5, acetate buffer pH 5.0, rt, HPLC (UV), read-out: Half-life (t½) pH 5.0 rt (converted)
[11] = pH 5, acetate buffer pH 5.0, rt, read-out: t½: pH 5.0, rt (Table S23) (converted)
[12] = pH 7.03, DPBS pH 7.03, RT, 1 mg/mL, HPLC 254 nm, read-out: t1/2 in PBS buffer at RT (Tables S1-S4) (converted)
[13] = pH 7.03, PBS, rt, HPLC (UV), read-out: Half-life (t½) PBS rt (converted)
[14] = pH 7.03, PBS, rt, read-out: t½: PBS, rt (Table S23) (converted)

SMILES	solubility [1]	half-life at 1 mg/mL [2, 9]	half-life at 1 mg/mL [2, 10]	half-life at 1 mg/mL [2, 11]	half-life at 1 mg/mL [4, 12]	half-life at 1 mg/mL [4, 13]	half-life at 1 mg/mL [4, 14]	other results
CNCCN(CCN1CCCC1)C(=O)O/N=C(\C)[C@H]1CC[C@H]2[C@@H]3CCC4=CC(=O)CC[C@]4(C)[C@H]3CC[C@]12C.O=C(O)C(F)(F)F [20h]	< 10000 µg/mL	105 h	105 h	105 h	7.23 ± 1.9 h	7.23 h	7.23 h	Solubility pH 5.0, rt ([1]; sodium acetate buffer pH 5, rt, visual inspection): degrades; Formation/release of oxime 3 in human plasma, in words [3]: rapid, first-order release
CNCCN(C(=O)O/N=C(\C)[C@H]1CC[C@H]2[C@@H]3CCC4=CC(=O)CC[C@]4(C)[C@H]3CC[C@]12C)C1CC1.O=C(O)C(F)(F)F [20b]	> 10000 µg/mL	> 168 h	> 168 h	> 168 h	28.16 ± 0.04 h	28.2 h	28.2 h	half-life at 3 µM [5]: 2.3 h; Plasma, 37 °C %rem. at 2h (Table S23) ([6]; 2 h): 31%; half-life at 3 µM ([6]; 3 µM, LC-MS/MS, read-out: t1/2 in human plasma at 37 °C (Tables S10-S13, S18) (converted)): 1.27 h; half-life at 3 µM ([6]; LC-MS/MS, read-out: Half-life (t½) Plasma 37°C (converted)): 1.27 h; half-life at 3 µM ([6]; read-out: Plasma, 37 °C t½ (Table S23) (converted)): 1.27 h; PBS, 37 °C %rem. at 2h (Table S23) ([7]; PBS, 2 h): 68%; half-life at 3 µM ([7]; phosphate-buffered saline (DPBS), 3 µM, LC-MS/MS, read-out: t1/2 in PBS at 37 °C (Tables S14-S17) (converted)): 4.5 h; half-life at 3 µM ([7]; phosphate-buffered saline (DPBS), LC-MS/MS, read-out: Half-life (t½) PBS 37°C (converted)): 4.5 h; half-life at 3 µM ([7]; phosphate-buffered saline (DPBS), read-out: PBS, 37 °C t½ (Table S23) (converted)): 4.5 h; half-life at 3 µM ([7]; phosphate-buffered saline (DPBS), read-out: t1/2 (h) PBS, 37 °C (Tables S25, S26) (converted)): 4.5 h; remaining at 2 h, 3 µM ([7]; phosphate-buffered saline (DPBS), pH 7.03, PBS, 2 h, read-out: % Remaining @ 2h, PBS, 37 °C (Tables S25, S26)): 68%; half-life at 3 µM [8]: 5.4 h
